The values that follow come from US20250197409A1, “BIFUNCTIONAL COMPOUND AND PHARMACEUTICAL COMPOSITION COMPRISING THE BIFUNCTIONAL COMPOUND, AND METHOD FOR TREATING ANDROGEN RECEPTOR RELATED DISEASE BY USING THE SAME” (ANHORN MEDICINES CO., LTD., priority 2022, published 2025).

Assay [1] deals with Androgenetic Alopecia (AGA) Mice Model. Nature of the assay: In vivo hair regrowth efficacy in androgenetic alopecia (AGA) mice model. Particulars: DHT pre-treated male C57BL/6 mice, topical 3.5 μg/cm2/day once daily, day 20; DHT+vehicle group 3.5. How it is done:
Seven-week old male C57BL/6 mice (with black fur) purchased from BioLASCO Taiwan Co., Ltd. were grouped 6 to 8 mice per cage, and intraperitoneally administered with dihydrotestosterone (DHT) (1 mg/day, dissolved in corn oil) or corn oil alone once daily for four days. DHT is an agonist to androgen receptors, which can be used to induce symptoms of androgenetic alopecia.
Four days later, the dorsal region of the mice was depilated with hair removal cream (Nair Sensitive Hair Removal Cream, 100 mg to 200 mg per mouse). After hair removal, the skin color was recorded by photographs with a resolution of 4032*3024 pixel (day 1, D1). On the next day (D2), the test solutions of the compound 29 and compound 33 in a vehicle were prepared (3.5 μg/cm^2/day), and each test solution or vehicle alone was topically administered on the depilated region once daily for 20 days. The hair removal cream, the test solution and the vehicle were separately rubbed into the dorsal region of mice. The photographs underwent analysis using a self-developed software that utilized auto-image segmentation, primarily focusing on the border of the depilation area. This segmentation process involved classifying different regions within the images. […] The hair regrowth efficacy could be evaluated by the photographs and/or the skin color score.

In another assay the target is T1, androgen receptor (Homo sapiens, UniProt P10275, T878A).
T1 construct: host or cells: LNCaP.FGC
T1 sequence (P10275 whole entry T878A): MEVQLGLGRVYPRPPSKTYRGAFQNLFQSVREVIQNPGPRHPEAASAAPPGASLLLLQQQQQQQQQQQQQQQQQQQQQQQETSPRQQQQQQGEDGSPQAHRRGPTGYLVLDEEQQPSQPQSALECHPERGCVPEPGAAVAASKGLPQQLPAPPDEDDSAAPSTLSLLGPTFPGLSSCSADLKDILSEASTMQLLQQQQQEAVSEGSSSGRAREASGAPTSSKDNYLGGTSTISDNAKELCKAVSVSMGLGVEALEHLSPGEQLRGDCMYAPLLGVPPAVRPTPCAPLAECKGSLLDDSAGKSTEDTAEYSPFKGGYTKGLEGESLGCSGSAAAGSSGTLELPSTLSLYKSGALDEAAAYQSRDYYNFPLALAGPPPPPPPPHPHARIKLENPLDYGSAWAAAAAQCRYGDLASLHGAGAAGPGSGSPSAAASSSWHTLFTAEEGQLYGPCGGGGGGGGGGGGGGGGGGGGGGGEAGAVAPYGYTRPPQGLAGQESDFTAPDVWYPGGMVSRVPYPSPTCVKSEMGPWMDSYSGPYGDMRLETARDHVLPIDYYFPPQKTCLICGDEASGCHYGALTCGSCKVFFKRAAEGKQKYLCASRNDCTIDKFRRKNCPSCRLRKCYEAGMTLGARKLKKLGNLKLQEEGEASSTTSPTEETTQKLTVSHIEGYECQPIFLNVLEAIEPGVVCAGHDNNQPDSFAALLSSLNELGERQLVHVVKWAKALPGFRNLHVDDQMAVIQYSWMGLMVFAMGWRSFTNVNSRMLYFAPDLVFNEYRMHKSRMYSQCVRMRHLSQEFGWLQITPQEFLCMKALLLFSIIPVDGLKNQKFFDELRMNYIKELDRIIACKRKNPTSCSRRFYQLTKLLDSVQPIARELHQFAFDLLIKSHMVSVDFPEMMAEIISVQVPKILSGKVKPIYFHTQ
T1 sequence (Q96SW2 whole entry partner): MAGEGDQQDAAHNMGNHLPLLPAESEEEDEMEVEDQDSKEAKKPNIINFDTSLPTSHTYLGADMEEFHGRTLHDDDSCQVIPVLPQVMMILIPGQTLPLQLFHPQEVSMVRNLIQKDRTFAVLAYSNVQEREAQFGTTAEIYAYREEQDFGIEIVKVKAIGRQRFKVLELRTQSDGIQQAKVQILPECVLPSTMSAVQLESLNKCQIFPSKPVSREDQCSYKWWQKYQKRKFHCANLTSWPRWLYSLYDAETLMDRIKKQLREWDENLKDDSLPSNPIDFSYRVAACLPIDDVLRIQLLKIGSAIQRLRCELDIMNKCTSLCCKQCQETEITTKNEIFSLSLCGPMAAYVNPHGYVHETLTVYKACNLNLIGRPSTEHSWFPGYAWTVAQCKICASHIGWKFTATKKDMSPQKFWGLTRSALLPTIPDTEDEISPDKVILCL
Nature of the assay: Androgen receptor degradation assay using Western blot analysis. The format is cell-based. In short, it runs like this:
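LNCaP.FGC cells (2×10^5/well) treated with 10-fold serial dilutions in RPMI from 100 nM stock; untreated cells as negative control. AR Western signal normalized to GAPDH, expressed as % remaining versus untreated (100%). DC50 derived from calibration curve of serial dilutions.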
A general note: In western blotting, separated proteins are transferred to a membrane and probed.

[2] abbreviates: 24 h, read-out: Androgen Receptor Remaining (%), LNCaP.FGC cells, 100 nM, 24 hr, normalized to GAPDH, untreated cells = 100%.
The mark [3] stands for this setting: read-out: AR DC50 (concentration needed for 50% AR degradation); LNCaP.FGC cells, serial 10x dilutions from 100 nM.
Where [4] appears, read: LNCaP.FGC cells, serial 10x dilutions from 100 nM; read-out: AR DC50 (concentration needed for 50% AR degradation).

Like-named read-outs stand apart in the source and are kept apart here.

`CCn1c2c(c3ccc(OCCCN4CCN(c5ccc(C(=O)N[C@H]6CC[C@H](Oc7ccc(C#N)c(Cl)c7)CC6)nn5)CC4)cc31)C(=O)N(C1CCC(=O)NC1=O)C2=O` (stereo partly drawn) [Compound 29]: the “average skin color score (1 = depilated skin, 8 = fully regrown hair)” value in assay [1] amounted to 8. Moreover, the remaining activity at 0.1 µM on androgen receptor (setting [2]) amounted to 31%. At androgen receptor (setting [3]), the DC50 lay within 10 to 25 nM.
In the case of `CCn1c2c(c3ccc(OCCN4CCN(c5ccc(C(=O)N[C@H]6CC[C@H](Oc7ccc(C#N)c(Cl)c7)CC6)nn5)CC4)cc31)C(=O)N(C1CCC(=O)NC1=O)C2=O` (stereo partly drawn) [Compound 33], in assay [1], the “average skin color score (1 = depilated skin, 8 = fully regrown hair)” value is recorded as 6.5. Besides, the remaining activity at 0.1 µM on androgen receptor (setting [2]) came to 27%. Also, the DC50 at androgen receptor (setting [3]) was in the range of 10 to 25 nM.
Regarding `CCn1c2c(c3ccc(OCCCN4CCN(c5ncc(C(=O)N[C@H]6CC[C@H](Oc7ccc(C#N)c(Cl)c7)CC6)cn5)CC4)cc31)C(=O)N(C1CCC(=O)NC1=O)C2=O` (stereo partly drawn) [Compound 220], the DC50 at androgen receptor (setting [3]) was 25 to 100 nM.
Consider `Cn1c2c(c3ccc(OC4CCN(CC5CCN(c6ccc(C(=O)N[C@H]7C(C)(C)[C@H](Oc8ccc(C#N)c(Cl)c8)C7(C)C)nn6)CC5)CC4)cc31)C(=O)N(C1CCC(=O)NC1=O)C2=O` (stereo partly drawn) [Compound 221], for which the DC50 at androgen receptor (setting [4]) lay within 10 to 25 nM.
`Cn1c2c(c3ccc(OC4CCN(CC5CCN(c6ccc(C(=O)N[C@H]7C(C)(C)[C@@H](Oc8ccc(C#N)c(Cl)c8)C7(C)C)cn6)CC5)CC4)cc31)C(=O)N(C1CCC(=O)NC1=O)C2=O` (stereo partly drawn) [Compound 222]: the DC50 on androgen receptor (setting [4]) was in the range of 10 to 25 nM.
